Data reported in a melting point compilation (Tetko et al.; mined from patent text by program, amines drawn as free bases though some values may be those of a salt).

| Compound | melting point [°C] |
| --- | --- |
| C[C@](O)(COc1ccc(Cl)cc1)C(=O)Nc1ccc(C#N)c(C(F)(F)F)c1 | 146 to 148 |
| CCCCCc1ccc(C(=O)Nc2ccc(-n3nc(C(F)(F)F)cc3C(F)(F)F)cc2)c(=O)o1 | 140 to 141 |
| CCC(C)C(C)C(=O)Nc1ccc2c(C)cn3c(=O)c(C(=O)NCCN4CCN(C(c5ccccc5)c5ccccc5)CC4)cnc3c2c1 (centres undefined) | 226 to 230 |
| CCCCNC(=O)c1cc(S(=O)(=O)NC23CC4CC(CC(C4)C2)C3)cc2c1OCCO2 | 147 |
| COc1cc(C=Cc2nc3c(c(=O)n(C)c(=O)n3C)n2C)cc(OC)c1 | 228 to 230 |
| COC1CCC(NC(=O)C2CC3c4cccc5c4c(cn5C(C)C)CC3N(C)C2)CC1 (centres undefined) | > 230 |
| CCc1ccc(C2CCC(c3ccc(Oc4ccc([N+](=O)[O-])cc4)cc3)(c3ccc(Oc4ccc([N+](=O)[O-])cc4)cc3)CC2)cc1 | 204 to 205 |
| CN(C1CCN(C(=O)OC(C)(C)C)CC1)S(=O)(=O)c1ccc(Nc2nccc(Nc3ccc(F)cc3)n2)cc1 | 174 to 176 |
| Cc1cn(C(c2ccccc2)(c2ccccc2)c2ccccc2)cn1 | 214 to 216 |
| Cc1nc2ccccn2c(=O)c1CCN1CCC(Nc2nc3ccccc3n2Cc2cnccn2)CC1 | 204 |
| CN(C)C(=O)C(C#N)=Cc1cc(O)c(O)c([N+](=O)[O-])c1 | 183 to 185 |
| CCCCCCCCCCCCCCCC(=O)OC1CN(C)C2(C1)C1CC3CC(C1)CC2C3 (centres undefined) | 50 to 53 |

Continued, values first:

| melting point [°C] | Compound |
| --- | --- |
| 95 to 96 | Cc1c(CO)sc2cc(Br)ccc12 |
| 147 to 148 | CCOC(=O)Cc1c(C(=O)CC)sc2[nH]c(C(=O)CC)cc12 |
| 68 to 74 | CC(C)(C)OC(=O)Nc1ccc(OC(=O)C2CCCCC2)c(C(=O)O)c1 |
| 207 to 210 | COCCCn1nnnc1-c1cc(-c2ccccc2C(F)(F)F)c(O)cc1O |
| 119 to 120 | CN1Cc2cc(Br)cnc2N(C)C1=O |
| 234 to 236 | COC(=O)Nc1nc2cc(C)[nH]c2c(=O)[nH]1 |
| 99 to 104 | CC(=S)N(C)Cc1ccc(F)cc1 |
